These are literature values, as cited in patent publication CN101444491A, “奥扎格雷钠微球冻干制剂及其制备方法” (HAINAN SHU ER PHARMACEUTICAL RESEARCH Co Ltd, priority 2008, dated 2009).

The structures appear in SMILES notation.

The conditions of data set [1]: after conversion into sodium salt (JP2001316265).

As for `O=C(O)/C=C/c1ccc(Cn2ccnc2)cc1` [奥扎格雷], the solubility in water entry is “溶解度较小”.

For the compound `O=C(O)/C=C/c1ccc(Cn2ccnc2)cc1` [奥扎格雷钠, 钠盐], the “stability in aqueous solution” value in data set [1] is “稳定性下降”.
